In assay [1] the target is recombinant SARS-CoV-2 spike B.1.617.2 (delta variant). Type of assay: binding.
In assay [2] the test system is SARS-CoV-2 alpha variant (B.1.1.7). It is filed as cell-based.
Assay [3] relates to omicron (B.1.1.529) variant. Type of assay: binding, SARS-CoV-2.

Entries after “also recorded” stand apart in the source; their conditions may differ. Starred links: 1 amine or outer side, 2 acyl side, 3 side chain; linkers in the order of their positions; H or OH if unused. Positions of bridges follow the written chain, without caps; N, C: chain ends. Non-standard residues stand in square brackets, D forms with d. Residues, ends and D or L forms follow the SMILES beside them. X1 = C[C@@](CC=[*:3])(N[*:1])C(=O)[*:2]

As for `CSCC[C@@H]1NC(=O)[C@H](CC(N)=O)NC(=O)[C@@H]2CC(=O)NCCCC[C@H](NC(=O)[C@H](Cc3c[nH]c4ccccc34)NC(=O)[C@@H](NC(=O)[C@H](CCCCN)NC(=O)[C@H](Cc3ccc(O)cc3)NC(=O)[C@H](CC(C)C)NC(=O)[C@H](Cc3c[nH]c4ccccc34)NC(=O)[C@H](CCC(=O)O)NC(=O)[C@@H](NC(=O)CNC(C)=O)[C@@H](C)O)C(C)C)C(=O)N[C@@H](C)C(=O)N[C@@H](Cc3ccccc3)C(=O)N[C@@](C)(C/C=C/C[C@@](C)(C(=O)O)NC1=O)C(=O)N2` [pep39] (Ac-GTEWLYKVWKAF[X1]DNM[X1]-OH; lactam 10-14; staple (E) 13-17), the Kd – broadly, the constant that tells how readily two partners part at equilibrium – in assay [1] (read-out: KD (dissociation constant)) was found to be 4.1 ± 1.4 µM. The “inhibition of SARS-CoV-2 virus replication” value in assay [2] is on record as “strongly inhibits SARS-CoV-2 virus replication in Vero E6 cells; also recorded: SARS-CoV-2 viral replication was significantly inhibited”. In assay [2] (48 h), the “decrease of viral replication compared to PBS control” value came to 82.3%. Further, in assay [3], the “binding to omicron variant” value was “not as promising as those observed with the original spike protein and the delta variant”.
Consider ACE2, for which the “dissociation constant of ACE2 with delta variant compared with wild-type spike” value in assay [1] is given as “more favorable for binding than the wild-type spike protein”.
